Values quoted from earlier work in patent US20240292871A1, “A SWEETENER OR SWEETNESS ENHANCER COMPOSITION” (ANALYTICON DISCOVERY GMBH, priority 2020, published 2024).

Conditions: 5% sucrose in water

COc1ccc([C@@H]2CC(=O)c3c(O)cc(O)cc3O2)cc1O [hesperetin]
enhances the sweetness of sucrose: 41%
